What all share (assay): biochemical
Holding throughout (design): DiscoverX kinase panel, active-site competition binding (KINOMEscan type), percent of control at one concentration
Holding throughout (details): competition binding, percent of control

The target in test [1] is MYLK (Homo sapiens, UniProt Q15746).
Test [2] deals with T1, RPS6KA4(Kin.Dom.2-C-terminal) (Homo sapiens, UniProt O75676).
T1 construct: Kin.Dom.2-C-terminal

For test [3], the target named is NLK (Homo sapiens, UniProt Q9UBE8).
The target of test [4] is SLK (Homo sapiens, UniProt Q9H2G2).
The target of test [5] is T2, HPK1 (Homo sapiens, UniProt Q92918).
T2 construct: gene MAP4K1

The target in test [6] is EPHA7 (Homo sapiens, UniProt Q15375).
In test [7] the target is MAP4K3 (Homo sapiens, UniProt Q8IVH8).
For test [8], the target named is CDKL1 (Homo sapiens, UniProt Q00532).
The target in test [9] is T3, ERK8 (Homo sapiens, UniProt Q8TD08).
T3 construct: gene MAPK15

In test [10] the target is AKT1 (Homo sapiens, UniProt P31749).
The target of test [11] is T4, ZAK (Homo sapiens, UniProt Q9NYL2).
T4 construct: gene MAP3K20

The target of test [12] is EPHA2 (Homo sapiens, UniProt P29317).
Test [13] concerns the target MAP3K3 (Homo sapiens, UniProt Q99759).
In test [14] the target is CDK4 (Homo sapiens, UniProt P11802).
In test [15] the target is T5, JNK2 (Homo sapiens, UniProt P45984).
T5 construct: gene MAPK9

Test [16] concerns the target EGFR(L747-E749del, A750P) (Homo sapiens, UniProt P00533, A750P/DEL747-749).
The target in test [17] is VRK2 (Homo sapiens, UniProt Q86Y07).
The target of test [18] is CDKL2 (Homo sapiens, UniProt Q92772).
In test [19] the target is PDGFRA (Homo sapiens, UniProt P16234).
The target in test [20] is T6, PAK7 (Homo sapiens, UniProt Q9P286).
T6 construct: gene PAK5

The target in test [21] is FGR (Homo sapiens, UniProt P09769).
FGR, sequence (P09769 whole entry): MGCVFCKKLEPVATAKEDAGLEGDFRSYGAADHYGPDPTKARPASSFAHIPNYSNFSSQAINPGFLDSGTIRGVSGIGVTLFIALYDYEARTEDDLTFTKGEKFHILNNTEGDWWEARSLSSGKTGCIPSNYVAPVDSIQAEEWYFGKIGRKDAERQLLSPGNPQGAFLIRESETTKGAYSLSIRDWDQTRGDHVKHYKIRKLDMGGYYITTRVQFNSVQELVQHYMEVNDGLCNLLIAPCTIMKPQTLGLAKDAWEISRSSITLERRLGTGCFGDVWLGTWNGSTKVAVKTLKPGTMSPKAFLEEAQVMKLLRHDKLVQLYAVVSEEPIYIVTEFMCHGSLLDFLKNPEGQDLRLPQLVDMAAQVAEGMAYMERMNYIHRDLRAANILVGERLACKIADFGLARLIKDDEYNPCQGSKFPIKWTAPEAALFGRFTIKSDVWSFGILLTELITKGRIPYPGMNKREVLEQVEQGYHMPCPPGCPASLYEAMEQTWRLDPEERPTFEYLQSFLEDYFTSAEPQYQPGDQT

CDKL2, sequence (Q92772 whole entry): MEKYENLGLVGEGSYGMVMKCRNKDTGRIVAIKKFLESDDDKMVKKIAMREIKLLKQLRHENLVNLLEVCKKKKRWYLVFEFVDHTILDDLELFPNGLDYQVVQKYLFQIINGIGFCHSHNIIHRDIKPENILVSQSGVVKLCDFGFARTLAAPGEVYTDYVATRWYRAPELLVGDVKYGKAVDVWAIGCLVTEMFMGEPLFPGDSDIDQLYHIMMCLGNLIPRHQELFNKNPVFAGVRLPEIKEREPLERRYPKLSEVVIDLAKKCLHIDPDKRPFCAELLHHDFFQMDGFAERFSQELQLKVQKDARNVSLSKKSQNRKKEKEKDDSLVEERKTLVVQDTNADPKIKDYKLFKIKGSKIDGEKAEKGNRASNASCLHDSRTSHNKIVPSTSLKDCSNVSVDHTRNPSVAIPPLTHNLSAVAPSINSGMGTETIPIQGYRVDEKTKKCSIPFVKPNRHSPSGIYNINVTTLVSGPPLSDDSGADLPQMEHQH
MAP3K3, sequence (Q99759 whole entry): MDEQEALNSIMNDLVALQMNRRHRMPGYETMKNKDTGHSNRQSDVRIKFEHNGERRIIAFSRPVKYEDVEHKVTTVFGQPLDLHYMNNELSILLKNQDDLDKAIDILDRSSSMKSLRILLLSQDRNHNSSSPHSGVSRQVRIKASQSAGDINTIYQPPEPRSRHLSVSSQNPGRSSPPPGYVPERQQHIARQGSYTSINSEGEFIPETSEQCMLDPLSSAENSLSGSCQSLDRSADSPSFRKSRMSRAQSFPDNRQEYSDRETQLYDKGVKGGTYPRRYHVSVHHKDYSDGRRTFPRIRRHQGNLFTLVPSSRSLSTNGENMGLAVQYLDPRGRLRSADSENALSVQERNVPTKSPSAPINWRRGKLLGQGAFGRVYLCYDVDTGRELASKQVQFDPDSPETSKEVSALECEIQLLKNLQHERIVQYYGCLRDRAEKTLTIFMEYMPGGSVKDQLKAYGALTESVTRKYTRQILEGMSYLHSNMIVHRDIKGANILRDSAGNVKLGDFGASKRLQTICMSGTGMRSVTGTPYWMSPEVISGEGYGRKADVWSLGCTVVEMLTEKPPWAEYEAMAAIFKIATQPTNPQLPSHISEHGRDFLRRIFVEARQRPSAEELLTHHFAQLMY
VRK2, sequence (Q86Y07 whole entry): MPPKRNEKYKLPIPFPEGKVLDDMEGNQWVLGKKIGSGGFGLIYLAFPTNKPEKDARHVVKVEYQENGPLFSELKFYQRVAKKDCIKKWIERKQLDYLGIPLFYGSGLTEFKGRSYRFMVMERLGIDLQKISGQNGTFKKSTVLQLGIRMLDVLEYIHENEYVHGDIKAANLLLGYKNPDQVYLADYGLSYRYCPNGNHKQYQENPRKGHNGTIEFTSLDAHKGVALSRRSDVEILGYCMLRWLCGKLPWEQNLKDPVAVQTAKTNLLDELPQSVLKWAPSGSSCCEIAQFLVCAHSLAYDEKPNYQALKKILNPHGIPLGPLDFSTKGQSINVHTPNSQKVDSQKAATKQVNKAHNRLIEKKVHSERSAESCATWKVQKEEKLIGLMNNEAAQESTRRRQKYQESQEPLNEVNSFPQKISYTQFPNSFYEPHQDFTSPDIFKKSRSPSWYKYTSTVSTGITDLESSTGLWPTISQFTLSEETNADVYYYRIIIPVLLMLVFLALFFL
MYLK, sequence (Q15746 whole entry): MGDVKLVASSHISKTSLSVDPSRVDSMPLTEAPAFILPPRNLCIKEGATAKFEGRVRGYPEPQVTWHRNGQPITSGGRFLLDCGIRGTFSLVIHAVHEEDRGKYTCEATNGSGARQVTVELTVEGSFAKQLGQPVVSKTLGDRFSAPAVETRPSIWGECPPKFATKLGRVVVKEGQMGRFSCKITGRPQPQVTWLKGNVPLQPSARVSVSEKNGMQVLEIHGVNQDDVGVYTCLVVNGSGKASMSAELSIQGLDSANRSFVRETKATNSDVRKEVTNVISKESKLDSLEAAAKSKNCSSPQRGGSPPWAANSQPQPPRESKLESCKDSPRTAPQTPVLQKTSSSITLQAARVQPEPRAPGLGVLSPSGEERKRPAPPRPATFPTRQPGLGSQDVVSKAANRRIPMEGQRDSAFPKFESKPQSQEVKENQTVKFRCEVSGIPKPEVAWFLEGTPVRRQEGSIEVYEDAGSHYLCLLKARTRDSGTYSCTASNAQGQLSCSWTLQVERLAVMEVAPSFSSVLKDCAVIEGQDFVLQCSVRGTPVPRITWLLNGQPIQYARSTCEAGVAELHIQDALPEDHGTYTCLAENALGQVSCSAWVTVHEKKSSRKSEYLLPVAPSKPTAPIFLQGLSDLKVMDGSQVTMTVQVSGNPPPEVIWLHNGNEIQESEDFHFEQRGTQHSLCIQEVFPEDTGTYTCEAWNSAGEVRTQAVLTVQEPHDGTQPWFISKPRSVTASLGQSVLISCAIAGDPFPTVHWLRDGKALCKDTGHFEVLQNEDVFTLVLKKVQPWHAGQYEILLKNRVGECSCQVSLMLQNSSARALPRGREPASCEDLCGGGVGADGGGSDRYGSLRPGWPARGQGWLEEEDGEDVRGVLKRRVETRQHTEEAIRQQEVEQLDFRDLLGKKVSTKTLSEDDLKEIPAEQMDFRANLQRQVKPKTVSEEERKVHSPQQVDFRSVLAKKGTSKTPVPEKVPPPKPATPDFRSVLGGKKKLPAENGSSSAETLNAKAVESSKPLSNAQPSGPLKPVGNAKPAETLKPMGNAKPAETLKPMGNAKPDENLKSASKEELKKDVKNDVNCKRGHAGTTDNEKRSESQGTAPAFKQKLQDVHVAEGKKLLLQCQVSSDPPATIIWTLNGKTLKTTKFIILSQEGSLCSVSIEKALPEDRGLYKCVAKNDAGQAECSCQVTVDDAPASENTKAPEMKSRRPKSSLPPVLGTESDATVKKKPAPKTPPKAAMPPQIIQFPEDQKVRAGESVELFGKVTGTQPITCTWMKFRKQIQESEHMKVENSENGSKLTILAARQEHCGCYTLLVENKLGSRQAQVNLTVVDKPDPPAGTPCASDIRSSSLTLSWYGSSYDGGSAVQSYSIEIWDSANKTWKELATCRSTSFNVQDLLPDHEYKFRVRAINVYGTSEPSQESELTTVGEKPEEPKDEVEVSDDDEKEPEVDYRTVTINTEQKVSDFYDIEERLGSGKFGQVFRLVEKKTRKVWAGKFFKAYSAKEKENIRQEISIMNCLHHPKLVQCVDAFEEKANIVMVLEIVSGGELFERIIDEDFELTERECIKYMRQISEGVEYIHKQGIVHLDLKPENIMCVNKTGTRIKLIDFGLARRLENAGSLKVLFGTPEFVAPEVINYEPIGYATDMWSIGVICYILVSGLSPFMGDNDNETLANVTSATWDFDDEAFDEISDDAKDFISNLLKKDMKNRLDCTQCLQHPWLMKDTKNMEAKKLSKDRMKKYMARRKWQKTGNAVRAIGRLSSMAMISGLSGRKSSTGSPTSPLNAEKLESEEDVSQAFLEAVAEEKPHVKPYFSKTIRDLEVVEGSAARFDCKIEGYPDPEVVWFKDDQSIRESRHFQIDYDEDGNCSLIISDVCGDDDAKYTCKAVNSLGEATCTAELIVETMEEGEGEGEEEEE
T1 sequence (O75676 whole entry): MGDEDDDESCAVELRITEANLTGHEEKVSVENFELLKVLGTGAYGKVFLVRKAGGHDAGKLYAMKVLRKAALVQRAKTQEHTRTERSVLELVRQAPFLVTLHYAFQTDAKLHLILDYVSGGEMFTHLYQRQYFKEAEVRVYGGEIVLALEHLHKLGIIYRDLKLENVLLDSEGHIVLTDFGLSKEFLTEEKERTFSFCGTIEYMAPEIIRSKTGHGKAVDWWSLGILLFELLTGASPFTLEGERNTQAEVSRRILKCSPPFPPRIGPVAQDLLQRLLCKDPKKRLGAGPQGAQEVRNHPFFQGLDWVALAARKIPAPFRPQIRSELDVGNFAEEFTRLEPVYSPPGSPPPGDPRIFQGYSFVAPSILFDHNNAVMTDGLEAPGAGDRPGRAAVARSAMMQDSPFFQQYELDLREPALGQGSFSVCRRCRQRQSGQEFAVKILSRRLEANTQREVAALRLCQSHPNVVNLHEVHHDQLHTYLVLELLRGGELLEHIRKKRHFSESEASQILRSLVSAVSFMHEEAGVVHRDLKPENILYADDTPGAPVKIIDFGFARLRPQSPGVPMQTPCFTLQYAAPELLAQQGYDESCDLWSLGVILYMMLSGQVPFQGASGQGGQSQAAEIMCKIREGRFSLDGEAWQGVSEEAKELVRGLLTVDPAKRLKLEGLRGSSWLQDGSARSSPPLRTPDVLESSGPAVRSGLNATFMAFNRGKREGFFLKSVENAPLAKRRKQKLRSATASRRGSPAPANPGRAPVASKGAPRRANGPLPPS

`COc1cc2c(cn1)N(C)C(=O)[C@@H](NC(=O)c1nc3n(n1)[C@H](c1ccccc1)CC3)CC2` [GNE684, (S)-N-((S)-7-methoxy-1-methyl-2-oxo-2,3,4,5-tetrahydro-1H-pyrido[3,4-b]azepin-3-yl)-5-phenyl-6,7-dihydro-5H-pyrrolo[1,2-b][1,2,4]triazole-2-carboxamide]: the remaining binding at 10 µM is 99% in test [1]; 100% in [2]; 94% in [3]; 100% in test [4]; 98% in [5]; 100% in test [6]. Moreover, the remaining binding at 10 µM in [7] was 99%; in test [8], 74%; in [9] it was 85%; in [10], 74%; in test [11], 99%; in test [12], 97%. Besides, the remaining binding at 10 µM in test [13] is 98%; in test [14], 100%; in test [15], 98%; in test [16] it was 85%; in test [17], 85%; in test [18] it was 95%. Also, the remaining binding at 10 µM turned out to be 100% in [19], 90% in test [20] and 94% in test [21].

(Values after paper PMC7206119, “RIP1 inhibition blocks inflammatory diseases but not tumor growth or metastases” (Cell Death and Differentiation, 2019).)
